{"source": "patent US20150306232A1", "about": "“HYDROGELATORS COMPRISING D-AMINO ACIDS” (BRANDEIS UNIVERSITY, priority 2012, published 2015)", "key": {"HeLa cells [1]": {"system": "HeLa cells", "experiment": "live cell imaging of intracellular self-assembly", "format": "cell-based", "settings": "500 μM", "description": "We seeded 2×10^5 of HeLa cells in Glass Chamber (Thermo Scientific Nunc Lab-Tek, 2-well) with MEM medium (2 mL) that was supplemented with 10% FBS, 100 U/mL penicillin and 100 mg mL 21 streptomycin for 4 h to allow the cell attachment. In order to perform the PTP1B Inhibition assay, we then replaced the culture medium in both wells and re-incubated the cells for 1 h, for which one-half of the wells was incubated in the medium containing 25 μM CinnGEL 2Me (novel inhibitor of PTP1B, prepared by reconstitution in DMSO), other well as a control was in the culture medium plus the same volume of DMSO. Ishino, Y.; et al. Mol. Vis. 2008, 14, 61. After that, we replaced the medium and washed the HeLa cells with PBS buffer for three times. Then we fixed the cell containing glass chamber on the confocal microscope stage, and replaced the PBS buffer with 1 mL solution of our fluorescent hydrogelators (500 μM, dissolved in PBS buffer) for each well. The sample we added into the PTP1B inhibition well also contained 25 μM of CinnGEL 2Me. Thereafter fluorescent images were captured immediately in the xyt mode with a delay of 11.64 s between frames."}, "ALP": {"system": "ALP", "experiment": "enzymatic dephosphorylation followed by 31P NMR", "format": "biochemical", "settings": "1.0 wt %, 0.02 U/mL ALP, pH 7.6, 25° C.", "description": "To evaluate the rate of enzymatic hydrogelation process, we used ^31P NMR and rheology to study the transformation of the precursors 11a and 11b upon the treatment of ALP (FIG. 26). We first dissolved 10 mg of 11a and 11b into 1.0 mL of water at pH 7.6, respectively, to afford clear solutions with concentrations of 1.0 wt %. Once adding 0.02 U/mL of alkaline phosphates, we immediately monitored the solutions of 11a and 11b by ^31P NMR and oscillatory rheology at 25° C. The ^31P NMR spectra at 3 min, 1 h, 2 h, 4 h, 6 h, 8 h, 10 h, 12 h, 14 h, 18 h, 24 h, and 48 h indicate that the phosphate groups on the L-tyrosine of 11a and D-tyrosine 11b (δ=−2.7) become free phosphates (δ=0.0) at almost same rate, and dephosphorylation finishes after 48 hours. […] FIGS. 26C and 26D display the time dependent rheology studies of 11a and 11b. At the beginning, values of G″ are higher than the values of G′ for the solutions of 11a and 11b, indicating both of them are fluids. However, as 11a and 11b slowly turn into hydrogelators 12a and 12b by enzymatic dephosphorylation, the solutions start to form solid-like hydrogels with values of G′ become higher than those of G″. The gelation points for 12a and 12b, at where G′s intersect with G″s, are both achieved around 5 hours after the addition of enzyme. […]"}, "[2]": {"experiment": "enzymatic hydrogelation with ALP", "format": "physicochemical", "settings": "1.0 U/mL ALP, pH 7.6, 0.4-1.0 wt %", "description": "To investigate the enzymatic hydrogelation of the D-peptidic precursor 11b, we prepared a series of hydrogels formed by using ALP to treat 11b at different concentrations. After dissolving 1.0, 2.0, 3.0, 4.0, and 5.0 mg of 11b in 0.5 mL of water (pH 7.6), respectively, we obtained clear solutions of 11b with different concentrations. The treatment of the solutions of 11b with ALP (1.0 U/mL) afforded the molecules of hydrogelator 12b, which are less soluble than 11b and thus self-assemble in water to form hydrogels when the concentrations of 12b are sufficient.\nAll the compounds were dissolved in de-ionized water. We then adjusted pH of the solutions carefully adding 1 M of NaOH and 1 M of HCl and measured the values by pH paper (pH 6.0-8.0). After prepared clear weakly basic solutions (pH 7.6 or 7.4), we then formed the hydrogels by adding enzymes (alkaline phosphatase)."}, "COX-1 (ovine) enzyme": {"biological_target": "T1, COX-1 (ovine) enzyme (Ovis aries, UniProt P05979)", "T1 construct": "purchased Cayman Chemical 700100", "T1 sequence (P05979 25-600)": "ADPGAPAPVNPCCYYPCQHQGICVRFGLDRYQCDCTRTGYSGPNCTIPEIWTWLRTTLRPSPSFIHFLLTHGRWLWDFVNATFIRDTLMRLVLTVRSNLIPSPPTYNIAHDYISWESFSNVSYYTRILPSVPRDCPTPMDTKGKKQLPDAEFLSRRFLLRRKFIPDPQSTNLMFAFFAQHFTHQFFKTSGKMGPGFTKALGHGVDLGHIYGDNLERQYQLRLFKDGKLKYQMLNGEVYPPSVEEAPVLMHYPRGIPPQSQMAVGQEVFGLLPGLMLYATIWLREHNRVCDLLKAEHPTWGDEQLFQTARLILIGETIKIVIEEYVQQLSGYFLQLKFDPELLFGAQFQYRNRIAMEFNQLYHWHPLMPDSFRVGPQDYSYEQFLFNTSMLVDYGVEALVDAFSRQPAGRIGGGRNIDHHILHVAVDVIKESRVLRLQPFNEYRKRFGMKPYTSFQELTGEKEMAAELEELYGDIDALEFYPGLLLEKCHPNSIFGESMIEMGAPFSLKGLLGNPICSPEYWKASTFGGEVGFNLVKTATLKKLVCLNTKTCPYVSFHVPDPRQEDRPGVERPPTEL", "experiment": "COX Fluorescent Inhibitor Screening Assay, COX-1", "format": "biochemical", "settings": "read-out: IC50 for inhibiting COX-1 enzyme", "description": "(§1) To study the drug efficacies of NSAID containing hydrogelators, here we used ‘COX Fluorescent Inhibitor Screening Assay Kit’ (700100; Cayman Chemical) to do in vitro inhibition assays for Npx and Npx containing hydrogelors 1, 2, 3, 4, 5, and 6. Each compound was tested by COX-1 (ovine) enzyme and COX-2 (human recombinant) enzyme separately in 96 well black assay plates. By utilizing the peroxidase component of COXs, we monitored the reaction between PGG2 and ADHP (10-acetyl-3,7-dihydroxyphenoxazine), which produced highly fluorescent compound resorufin. This resorufin can be easily analyzed by multimode detector with an excitation wavelength of 530-540 nm and an emission wavelength of 585-595 nm. All the compounds are assayed in triplicate. After the combination of 10 μl of inhibitors, 10 μl of Heme solution, 10 μL of fluorometric substrate, 10 μl of enzyme (either COX-1 or COX-2), and 150 μl of assay buffer, we quickly add 10 μl of arachidonic acid solution to initiate the reaction. Then we read the plate exactly after two minutes incubation at room temperature. In this experiment, we also measure the blank data without enzyme and inhibitors, and the control data without inhibitors. The IC50 values of these hydrogelators were read from their activity curves (FIG. 18), which were measured with 5 different concentrations of these hydrogelators (dissolved in DMSO)."}, "[3]": {"biological_target": "T2, COX-2 (human recombinant) enzyme (Homo sapiens, UniProt P35354)", "T2 construct": "purchased Cayman Chemical 700100", "T2 sequence (P35354 18-604)": "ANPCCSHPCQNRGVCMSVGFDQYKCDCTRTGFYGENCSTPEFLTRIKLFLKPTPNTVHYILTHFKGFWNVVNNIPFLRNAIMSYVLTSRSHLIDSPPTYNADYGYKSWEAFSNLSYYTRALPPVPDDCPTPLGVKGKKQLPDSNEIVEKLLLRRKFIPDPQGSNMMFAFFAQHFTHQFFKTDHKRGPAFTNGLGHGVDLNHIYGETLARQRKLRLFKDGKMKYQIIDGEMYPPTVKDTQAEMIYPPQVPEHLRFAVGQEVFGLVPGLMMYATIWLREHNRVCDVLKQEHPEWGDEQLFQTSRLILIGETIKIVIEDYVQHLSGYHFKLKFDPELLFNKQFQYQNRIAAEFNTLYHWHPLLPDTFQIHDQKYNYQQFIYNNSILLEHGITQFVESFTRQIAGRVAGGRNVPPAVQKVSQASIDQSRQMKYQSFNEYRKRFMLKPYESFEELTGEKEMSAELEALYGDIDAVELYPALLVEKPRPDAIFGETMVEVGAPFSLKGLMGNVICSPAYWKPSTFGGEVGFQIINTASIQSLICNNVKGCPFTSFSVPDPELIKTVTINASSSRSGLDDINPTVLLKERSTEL", "experiment": "COX Fluorescent Inhibitor Screening Assay, COX-2", "format": "biochemical", "description": "as §1"}, "HeLa cells [4]": {"system": "HeLa cells", "experiment": "cells", "format": "cell-based", "settings": "Homo sapiens, HeLa; 72 hours at 37° C., MTT; read-out: IC50, HeLa cell viability", "description": "We seeded […] (cells/well) of health HeLa cells into 96-well plate with 100 μL of MEM medium supplemented with 10% fetal bovine serum (FBS), 100 U/mL penicillin and 100 mg mL21 streptomycin. The incubation at 37° C. and 5% CO2 for 12 hours allowed HeLa cells to attach the bottom of 96-well plate. Then we replaced the medium by another 100 μL of growth medium that contained serial diluents of our compounds (0.5% DMSO) and then incubated the cells at 37° C. and 5% CO2 for additional 72 hours. During the measurement of proliferation for HeLa cells, which were assayed into three days, we added 10 μL of (3-(4,5-Dimethylthiazol-2-yl)-2,5-diphenyltetrazolium bromide (MTT, 0.5 mg/mL) into the assigned wells in their corresponding day every 24 hours, which was followed by adding 100 μL of 0.1% sodium dodecyl sulfate (SDS) 4 hours later. Then we collected the assay results after another 24 hours incubation. Since the mitochondrial reductase in living cells reduced MTT to purple fomazan, the absorbance at 595 nm of the whole solution was finally measured by DTX 880 Multimode Detector. With MEM medium as blank and untreated HeLa cells as control, we measure each concentration of these compounds in triplicate. The IC50 values of our hydrogelators were read from their activity curves (with the measurement of 8 different concentrations) in day 3."}, "4T1-luciferase cells": {"system": "4T1-luciferase cells", "experiment": "in vivo evaluation of antitumor activity", "set-up": "species or system Balb/c mice", "settings": "intravenous 4×10 mg/kg every other day from day 0", "description": "After inoculating female Balb/c mice with 2×10^5 of 4T1-luciferase cells in the mammary fat pad, we allow tumors grow until their sizes reach about 500 mm^3, and randomly divide them into different treatment groups: (1) intravenous injections of PBS vehicle control; (2) intravenous injection of 4×10 mg/kg Taxol® every other day from day 0 for indicated times; (3) a single intratumoral injection of 10 mg/kg Taxol containing hydrogels in 40 μL volume. With the treatments of 16 (Taxol; paclitaxel), 20a, 20b, or PBS buffer (control) for 14 days, we monitor the relative tumor sizes (calculated by the formula: tumor volume=length×width×(Length+Width)/2) and relative weights of mice every two days. […] Therefore, we have to divide 40 mg/kg of 16 into four injections with each injection of 10 mg/kg. […] This promising result warrants further investigation of the D-peptidic hydrogels of Taxol on animal models.\nFemale Balb/c mice were incubated with 2×10^5 4 T1-luciferase cells in the mammary fat pad. Tumor growth was monitored every other day and the tumor volume was calculated by the formula: length×width×(Length+Width)/2. Once tumors size reached around 500 mm^3, we randomly divided mice into different treatment groups. […] Mice weight was monitored after receiving treatment and presented as relative weight (%)."}, "[5]": {"experiment": "toxicity and relative weight of treated mice", "format": "in vivo, Balb/c mice", "settings": "single injection of 40 mg/kg, formulated with Cremophor EL, 40 mg/kg"}, "COX-2": {"biological_target": "COX-2 (Homo sapiens, UniProt P35354)", "settings": "read-out: reported IC50 of naproxen to COX-2; literature; cited from earlier work"}}, "note": "Residues, ends and D or L forms follow the SMILES beside them. *: point of attachment. Naproxen = COc1ccc2cc([C@H](C)C(=O)*)ccc2c1"}
{"compound": "2-(Naphthalen-2-yl)acetyl-(D)-Phe-(D)-Phe-(D)-Lys(NBD)-(D)-Tyr phosphate [14b]", "values": [{"measurement": "time until fluorescence emerges", "setting": "HeLa cells [1]; with 25 μM CinnGEL 2Me (PTP1B inhibitor)", "value": 5, "unit": "min"}, {"measurement": "time until cells exhibit strong fluorescence", "setting": "HeLa cells [1]; without PTP1B inhibitor", "value": 2, "unit": "min"}]}
{"compound": "2-(Naphthalen-2-yl)acetyl-(D)-Phe-(D)-Phe-(D)-Lys-(D)-Tyr phosphate [11b]", "values": [{"measurement": "time at which dephosphorylation finishes", "setting": "ALP", "value": 48, "unit": "h"}, {"measurement": "time to form hydrogel after addition of ALP", "setting": "[2]", "value": "≤ 24", "unit": "h"}]}
{"compound": "2-(Naphthalen-2-yl)acetyl-(L)-Phe-(L)-Phe-(L)-Lys-(L)-Tyr phosphate [11a, reference compound]", "values": [{"measurement": "time at which dephosphorylation finishes", "setting": "ALP", "value": 48, "unit": "h"}]}
{"compound": "COc1ccc2cc([C@H](C)C(=O)N[C@@H](Cc3ccccc3)C(=O)N[C@@H](Cc3ccccc3)C(=O)N[C@@H](CCCCN)C(=O)N[C@@H](Cc3ccc(O)cc3)C(=O)O)ccc2c1", "note": "[L-4, Naproxen-L-Phe-L-Phe-L-Lys-L-Tyr, reference compound] (Naproxen-FFKY-OH)", "values": [{"measurement": "IC50", "setting": "COX-1 (ovine) enzyme", "value": 115, "unit": "µM"}, {"measurement": "selectivity S for COX-2 (IC50 of COX-1/IC50 of COX-2)", "setting": "[3]", "value": "about 3"}]}
{"compound": "CC(=O)O[C@H]1C(=O)[C@@]2(C)[C@H]([C@H](OC(=O)c3ccccc3)[C@]3(O)C[C@H](OC(=O)[C@H](O)[C@@H](NC(=O)c4ccccc4)c4ccccc4)C(C)=C1C3(C)C)[C@]1(OC(C)=O)CO[C@@H]1C[C@@H]2O", "note": "[compound 16, paclitaxel]", "values": [{"measurement": "IC50", "setting": "HeLa cells [4]", "value": 0.0458, "unit": "µM"}, {"measurement": "relative tumor size vs control", "setting": "4T1-luciferase cells", "value": "smaller than those of the control group after day 8"}, {"measurement": "lethality", "setting": "[5]; listed as Taxol", "value": "Mice died immediately"}, {"measurement": "lethality", "setting": "[5]; listed as Taxol®", "value": "may cause the death of mouse immediately"}]}
{"compound": "COc1ccc2cc([C@H](C)C(=O)O)ccc2c1", "note": "[naproxen]", "values": [{"measurement": "IC50", "setting": "COX-2", "value": "2 to 28.4", "unit": "µM"}]}
